Results from ChEMBL document CHEMBL1201862, “PubChem BioAssay data set” (2004).
Activity calls are given as the source filed them.

How the values were obtained:
[1] = molecular target: Cytochrome P450 2C19 (Homo sapiens, UniProt P33261); experiment: Cytochrome panel assay with activity outcomes. Panel member name: p450-cyp2c19 Compounds with AC50 equal or less than 10 uM are considered active; type: functional; conditions: read-out: AC50
[2] = molecular target: Cytochrome P450 2C9 (Homo sapiens, UniProt P11712)
[3] = molecular target: DNA dC->dU-editing enzyme APOBEC-3A (Homo sapiens, UniProt P31941); experiment: Dose Response confirmation of small molecule APOBEC3A DNA Deaminase Inhibitors via a fluorescence-based single-stranded DNA deaminase assay. [Related pubchem assays (depositor defined):AID493011, AID493024]; type: functional
[4] = molecular target: DNA dC->dU-editing enzyme APOBEC-3G (Homo sapiens, UniProt Q9HC16); type: functional;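 also: Dose-response counterscreen measuring inhibition of APOBEC3G DNA deaminase activity, run while confirming APOBEC3A inhibitors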
[5] = molecular target: T1, Histone-lysine N-methyltransferase NSD2 (Homo sapiens, UniProt O96028); type: biochemical
T1 sequence (O96028 whole entry): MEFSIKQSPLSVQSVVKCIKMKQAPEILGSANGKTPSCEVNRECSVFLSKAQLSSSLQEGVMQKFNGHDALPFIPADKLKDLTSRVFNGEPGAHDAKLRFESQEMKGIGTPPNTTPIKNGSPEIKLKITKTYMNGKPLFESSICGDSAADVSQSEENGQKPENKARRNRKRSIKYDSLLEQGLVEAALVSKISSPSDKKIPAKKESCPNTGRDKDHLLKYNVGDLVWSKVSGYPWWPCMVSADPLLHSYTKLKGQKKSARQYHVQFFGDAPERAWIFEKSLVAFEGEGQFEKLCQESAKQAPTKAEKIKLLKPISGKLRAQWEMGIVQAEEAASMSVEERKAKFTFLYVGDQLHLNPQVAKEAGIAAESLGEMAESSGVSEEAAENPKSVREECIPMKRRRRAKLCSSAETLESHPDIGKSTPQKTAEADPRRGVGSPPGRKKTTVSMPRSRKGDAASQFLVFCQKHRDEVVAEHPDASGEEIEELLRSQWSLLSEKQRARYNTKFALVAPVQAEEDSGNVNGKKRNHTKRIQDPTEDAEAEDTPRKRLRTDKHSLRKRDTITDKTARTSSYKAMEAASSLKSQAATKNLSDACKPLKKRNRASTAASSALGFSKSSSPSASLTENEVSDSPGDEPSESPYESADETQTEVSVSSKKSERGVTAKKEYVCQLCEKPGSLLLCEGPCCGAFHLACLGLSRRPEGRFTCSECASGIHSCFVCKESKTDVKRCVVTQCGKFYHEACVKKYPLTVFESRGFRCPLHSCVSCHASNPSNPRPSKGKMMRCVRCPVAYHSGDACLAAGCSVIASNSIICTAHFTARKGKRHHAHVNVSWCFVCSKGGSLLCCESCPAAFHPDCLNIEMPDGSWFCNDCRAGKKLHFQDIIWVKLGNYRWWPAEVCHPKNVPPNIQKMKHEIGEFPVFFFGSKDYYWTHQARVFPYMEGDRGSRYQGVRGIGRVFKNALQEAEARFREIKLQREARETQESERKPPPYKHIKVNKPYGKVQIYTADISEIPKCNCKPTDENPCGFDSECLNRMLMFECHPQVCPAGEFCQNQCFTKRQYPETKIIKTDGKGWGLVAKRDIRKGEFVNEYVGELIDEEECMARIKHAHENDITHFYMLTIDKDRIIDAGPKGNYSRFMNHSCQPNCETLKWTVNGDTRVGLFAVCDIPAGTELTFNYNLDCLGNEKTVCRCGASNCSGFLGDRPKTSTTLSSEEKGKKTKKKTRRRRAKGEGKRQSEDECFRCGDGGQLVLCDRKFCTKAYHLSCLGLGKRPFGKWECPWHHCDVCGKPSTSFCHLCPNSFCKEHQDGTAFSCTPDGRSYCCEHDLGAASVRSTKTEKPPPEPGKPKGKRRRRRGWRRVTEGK

[6] = molecular target: T2, Tyrosyl-DNA phosphodiesterase 2 (Homo sapiens, UniProt O95551); experiment: human TDP2 enzyme inhibitors, dose response, biochemical, epi absorbance, IC50 (AID 743297)
T2 sequence (O95551 whole entry): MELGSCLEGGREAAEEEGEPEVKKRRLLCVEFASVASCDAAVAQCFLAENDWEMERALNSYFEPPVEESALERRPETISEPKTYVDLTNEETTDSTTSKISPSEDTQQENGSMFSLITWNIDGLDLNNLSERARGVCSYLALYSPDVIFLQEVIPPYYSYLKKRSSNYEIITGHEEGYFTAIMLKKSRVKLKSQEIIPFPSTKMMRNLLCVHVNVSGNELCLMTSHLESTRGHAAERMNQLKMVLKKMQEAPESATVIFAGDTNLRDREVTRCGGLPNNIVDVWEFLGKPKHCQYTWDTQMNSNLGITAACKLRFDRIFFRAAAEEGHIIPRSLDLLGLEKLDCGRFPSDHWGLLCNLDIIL

[7] = molecular target: T3, Polyadenylate-binding protein 1 (Homo sapiens, UniProt P11940); experiment: PABP1 MLLE–PAM2 interaction inhibitors, dose response, miRNA deadenylation inhibitor project, biochemical, fluorescence polarization, Cy5-PAM2 peptide, secondary (AID 602260); type: functional; conditions: read-out: IC50_Mean
[8] = molecular target: T3, Polyadenylate-binding protein 1; experiment: PABP1 MLLE–PAM2 binding inhibitor potency, dose response, biochemical, fluorescence polarization, FITC-PAM2 peptide (AID 602259); type: functional; conditions: read-out: IC50_Mean
[9] = molecular target: Cytochrome P450 3A4 (Homo sapiens, UniProt P08684);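 also: CYP3A4 tested as one member of a cytochrome P450 panel screen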
[10] = molecular target: T4, Replicative DNA helicase DnaB (Mycobacterium tuberculosis, UniProt P9WMR3); experiment: DnaB intein splicing inhibitors, dose response, biochemical, cell-free fluorescence (AID 449749); type: functional
T4 sequence (P9WMR3 whole entry): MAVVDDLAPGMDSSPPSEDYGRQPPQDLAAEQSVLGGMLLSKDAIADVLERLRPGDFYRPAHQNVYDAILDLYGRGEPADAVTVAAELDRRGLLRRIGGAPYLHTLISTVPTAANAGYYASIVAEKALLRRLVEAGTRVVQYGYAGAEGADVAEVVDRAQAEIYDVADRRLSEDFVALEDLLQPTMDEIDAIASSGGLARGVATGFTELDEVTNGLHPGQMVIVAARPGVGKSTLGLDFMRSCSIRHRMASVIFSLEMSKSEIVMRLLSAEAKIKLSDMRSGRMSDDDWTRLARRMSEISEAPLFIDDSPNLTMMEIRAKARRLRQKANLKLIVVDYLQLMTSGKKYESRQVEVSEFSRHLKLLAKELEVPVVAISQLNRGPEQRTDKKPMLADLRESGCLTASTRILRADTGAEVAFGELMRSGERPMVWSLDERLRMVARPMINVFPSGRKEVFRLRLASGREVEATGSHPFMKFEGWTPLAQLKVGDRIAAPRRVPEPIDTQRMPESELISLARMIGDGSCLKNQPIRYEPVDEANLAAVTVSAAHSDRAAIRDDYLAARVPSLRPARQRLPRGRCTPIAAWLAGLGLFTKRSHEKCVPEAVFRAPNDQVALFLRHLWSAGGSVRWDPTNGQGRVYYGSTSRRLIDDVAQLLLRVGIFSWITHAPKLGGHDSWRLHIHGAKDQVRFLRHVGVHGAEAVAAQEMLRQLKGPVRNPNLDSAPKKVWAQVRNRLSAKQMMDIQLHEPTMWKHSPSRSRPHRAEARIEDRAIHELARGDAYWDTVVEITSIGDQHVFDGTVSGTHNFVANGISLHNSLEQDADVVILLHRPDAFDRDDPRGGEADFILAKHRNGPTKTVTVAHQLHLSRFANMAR

[11] = molecular target: T5, Protein RecA (Mycobacterium tuberculosis, UniProt P9WHJ3); experiment: Fluorescence Cell-Free Homogeneous Dose Retest to Identify Inhibitors of RecA-Intein Splicing Activity. [Related pubchem assays (depositor defined):AID2097, AID2223, AID489010, AID492950]; type: functional
T5 sequence (P9WHJ3 whole entry): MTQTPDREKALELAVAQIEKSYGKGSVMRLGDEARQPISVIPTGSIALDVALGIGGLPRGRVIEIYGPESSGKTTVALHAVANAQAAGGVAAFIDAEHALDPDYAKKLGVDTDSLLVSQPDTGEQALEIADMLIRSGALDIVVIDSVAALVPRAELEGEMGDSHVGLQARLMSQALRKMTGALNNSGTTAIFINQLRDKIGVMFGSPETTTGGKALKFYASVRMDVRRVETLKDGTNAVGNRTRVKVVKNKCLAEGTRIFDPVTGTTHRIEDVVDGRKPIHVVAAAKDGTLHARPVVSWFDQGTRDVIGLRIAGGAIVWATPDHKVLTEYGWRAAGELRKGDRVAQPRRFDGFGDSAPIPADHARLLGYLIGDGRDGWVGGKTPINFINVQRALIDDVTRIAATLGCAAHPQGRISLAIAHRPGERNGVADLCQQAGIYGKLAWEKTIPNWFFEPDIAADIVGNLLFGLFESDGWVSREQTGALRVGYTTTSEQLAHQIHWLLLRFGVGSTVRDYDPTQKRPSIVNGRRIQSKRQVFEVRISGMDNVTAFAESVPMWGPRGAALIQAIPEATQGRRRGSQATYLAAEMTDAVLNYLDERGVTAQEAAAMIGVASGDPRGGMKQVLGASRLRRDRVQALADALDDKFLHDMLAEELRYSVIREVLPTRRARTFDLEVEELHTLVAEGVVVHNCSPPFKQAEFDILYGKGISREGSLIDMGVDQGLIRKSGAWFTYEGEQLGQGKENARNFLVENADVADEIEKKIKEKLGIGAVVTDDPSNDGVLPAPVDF

[12] = molecular target: T6, Mannose-6-phosphate isomerase (Homo sapiens, UniProt P34949); experiment: human PMI inhibitors, high substrate, primary screen, biochemical, fluorescence intensity, high mannose 6-phosphate (AID 1220)
T6 sequence (P34949 whole entry): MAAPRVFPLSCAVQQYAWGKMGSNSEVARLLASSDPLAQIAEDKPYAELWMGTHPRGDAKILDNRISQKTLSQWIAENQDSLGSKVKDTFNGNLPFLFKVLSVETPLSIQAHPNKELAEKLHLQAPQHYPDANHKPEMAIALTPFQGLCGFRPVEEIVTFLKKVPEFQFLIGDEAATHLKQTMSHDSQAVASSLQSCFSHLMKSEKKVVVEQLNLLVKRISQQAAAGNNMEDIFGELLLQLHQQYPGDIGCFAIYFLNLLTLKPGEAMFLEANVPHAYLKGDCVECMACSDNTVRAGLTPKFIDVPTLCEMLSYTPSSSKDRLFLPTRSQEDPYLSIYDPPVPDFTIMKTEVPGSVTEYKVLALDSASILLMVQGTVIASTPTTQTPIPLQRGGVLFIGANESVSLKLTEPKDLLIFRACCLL

[13] = cytotoxicity toward NIH3T3 fibroblasts, dose response, counter-screen, cell-based, ATP luminescence, mouse fibroblasts (AID 2010); type: functional;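 also: cells exposed to compound for about 90 hours before reading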
[14] = inhibitors of intracellular T. cruzi replication, confirmation, NIH3T3 host cells, beta-gal luminescence (AID 2044); type: functional, cell-based;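 also: intracellular parasites grown in NIH/3T3 mouse fibroblasts as host cells; luminescent beta-galactosidase reporter signal from transgenic T. cruzi replicating inside host cells; inhibitors lower the luminescence signal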
[15] = cytotoxicity in OVCAR8 ovarian cancer cells, dose response, PAX8 project, cell-based, plate reader, dry powder samples (AID 743197); type: functional; conditions: OVCAR-8
[16] = molecular target: Paired box protein Pax-8 (Homo sapiens, UniProt Q06710); experiment: inhibitors of PAX8-driven TPO luciferase reporter, dose response, RMG-I cells, cherry-pick (AID 687027); type: functional, cell-based;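 also: luciferase reporter driven by Pax8 target thyroperoxidase promoter measured by SteadyGlo luminescence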
[17] = molecular target: FAD-linked sulfhydryl oxidase ALR (Homo sapiens, UniProt P55789); experiment: inhibitors of human ALR sulfhydryl oxidase, dose response, biochemical, H2O2 detection, luminescence, cherry-pick (AID 493248)
[18] = molecular target: Cytochrome P450 2D6 (Homo sapiens, UniProt P10635);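 also: CYP2D6 member of a cytochrome P450 panel assay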
Cytochrome P450 2D6, sequence (P10635 whole entry): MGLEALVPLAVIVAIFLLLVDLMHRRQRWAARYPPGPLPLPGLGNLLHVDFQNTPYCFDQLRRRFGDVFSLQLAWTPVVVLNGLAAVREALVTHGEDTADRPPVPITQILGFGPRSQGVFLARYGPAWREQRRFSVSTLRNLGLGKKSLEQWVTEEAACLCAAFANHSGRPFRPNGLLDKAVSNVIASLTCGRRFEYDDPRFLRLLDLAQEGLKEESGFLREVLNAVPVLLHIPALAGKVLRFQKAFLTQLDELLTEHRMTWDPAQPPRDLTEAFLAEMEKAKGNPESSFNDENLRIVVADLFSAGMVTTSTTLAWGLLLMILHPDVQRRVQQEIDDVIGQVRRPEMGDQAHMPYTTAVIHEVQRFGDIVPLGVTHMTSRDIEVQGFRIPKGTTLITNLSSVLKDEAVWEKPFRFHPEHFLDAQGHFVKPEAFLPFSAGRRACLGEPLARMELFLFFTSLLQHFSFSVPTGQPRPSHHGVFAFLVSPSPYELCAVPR

DNA dC->dU-editing enzyme APOBEC-3G, sequence (Q9HC16 whole entry): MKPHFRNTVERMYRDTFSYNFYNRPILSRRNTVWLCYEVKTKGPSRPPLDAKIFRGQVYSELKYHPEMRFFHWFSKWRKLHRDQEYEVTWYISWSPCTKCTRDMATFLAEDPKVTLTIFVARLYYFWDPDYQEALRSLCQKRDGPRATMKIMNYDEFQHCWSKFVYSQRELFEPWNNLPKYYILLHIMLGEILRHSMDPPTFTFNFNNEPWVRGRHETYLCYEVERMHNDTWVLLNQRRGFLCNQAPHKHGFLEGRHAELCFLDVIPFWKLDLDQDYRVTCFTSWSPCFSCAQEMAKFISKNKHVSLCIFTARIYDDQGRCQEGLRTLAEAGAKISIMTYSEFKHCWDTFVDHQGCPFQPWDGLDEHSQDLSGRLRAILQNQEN
DNA dC->dU-editing enzyme APOBEC-3A, sequence (P31941 whole entry): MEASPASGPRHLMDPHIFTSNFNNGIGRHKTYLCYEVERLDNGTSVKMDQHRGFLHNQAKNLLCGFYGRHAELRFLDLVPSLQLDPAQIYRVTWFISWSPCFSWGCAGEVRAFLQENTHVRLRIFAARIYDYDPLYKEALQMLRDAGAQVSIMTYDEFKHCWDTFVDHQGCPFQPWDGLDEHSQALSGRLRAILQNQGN
Cytochrome P450 2C9, sequence (P11712 whole entry): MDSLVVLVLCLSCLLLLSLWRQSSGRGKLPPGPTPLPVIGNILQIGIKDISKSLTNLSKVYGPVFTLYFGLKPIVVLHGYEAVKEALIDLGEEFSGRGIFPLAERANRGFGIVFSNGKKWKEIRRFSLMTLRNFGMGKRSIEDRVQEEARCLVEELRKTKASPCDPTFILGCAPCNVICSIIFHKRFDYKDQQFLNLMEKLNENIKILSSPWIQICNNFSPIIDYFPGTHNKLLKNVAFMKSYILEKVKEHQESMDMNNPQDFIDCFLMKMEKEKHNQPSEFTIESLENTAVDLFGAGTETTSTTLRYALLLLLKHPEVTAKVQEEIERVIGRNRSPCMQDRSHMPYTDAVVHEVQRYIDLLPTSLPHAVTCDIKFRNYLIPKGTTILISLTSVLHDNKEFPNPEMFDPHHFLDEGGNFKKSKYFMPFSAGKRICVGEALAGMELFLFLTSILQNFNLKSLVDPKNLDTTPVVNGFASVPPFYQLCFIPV
Cytochrome P450 3A4, sequence (P08684 whole entry): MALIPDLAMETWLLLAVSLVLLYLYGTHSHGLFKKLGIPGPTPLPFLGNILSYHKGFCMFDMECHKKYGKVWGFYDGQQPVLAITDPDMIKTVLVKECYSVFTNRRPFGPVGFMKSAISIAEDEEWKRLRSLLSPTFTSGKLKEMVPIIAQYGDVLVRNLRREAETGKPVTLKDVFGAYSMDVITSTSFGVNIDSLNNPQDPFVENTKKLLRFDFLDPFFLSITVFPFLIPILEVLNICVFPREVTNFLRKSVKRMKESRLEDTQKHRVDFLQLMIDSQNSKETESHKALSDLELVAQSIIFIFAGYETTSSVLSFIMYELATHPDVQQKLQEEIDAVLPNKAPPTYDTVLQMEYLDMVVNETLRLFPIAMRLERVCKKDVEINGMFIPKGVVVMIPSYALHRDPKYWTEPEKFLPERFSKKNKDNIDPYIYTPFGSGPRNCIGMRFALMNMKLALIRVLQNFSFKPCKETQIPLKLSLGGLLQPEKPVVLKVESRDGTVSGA
T3 sequence (P11940 whole entry): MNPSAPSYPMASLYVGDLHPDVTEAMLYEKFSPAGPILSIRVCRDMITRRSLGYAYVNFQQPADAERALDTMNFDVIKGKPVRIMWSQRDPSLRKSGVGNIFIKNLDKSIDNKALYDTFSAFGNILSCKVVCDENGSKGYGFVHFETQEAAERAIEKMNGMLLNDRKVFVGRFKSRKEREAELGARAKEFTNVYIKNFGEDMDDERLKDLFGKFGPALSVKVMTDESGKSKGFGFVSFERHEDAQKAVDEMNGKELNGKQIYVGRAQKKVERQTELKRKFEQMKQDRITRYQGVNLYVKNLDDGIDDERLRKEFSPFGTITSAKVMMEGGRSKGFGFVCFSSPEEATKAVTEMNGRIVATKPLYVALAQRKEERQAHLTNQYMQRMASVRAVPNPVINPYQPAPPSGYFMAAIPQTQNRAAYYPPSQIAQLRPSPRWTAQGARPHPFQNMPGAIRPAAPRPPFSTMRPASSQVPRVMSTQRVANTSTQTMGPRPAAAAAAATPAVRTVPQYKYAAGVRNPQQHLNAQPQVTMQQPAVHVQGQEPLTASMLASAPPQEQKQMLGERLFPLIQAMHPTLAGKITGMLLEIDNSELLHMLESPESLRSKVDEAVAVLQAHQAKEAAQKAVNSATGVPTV
Cytochrome P450 2C19, sequence (P33261 whole entry): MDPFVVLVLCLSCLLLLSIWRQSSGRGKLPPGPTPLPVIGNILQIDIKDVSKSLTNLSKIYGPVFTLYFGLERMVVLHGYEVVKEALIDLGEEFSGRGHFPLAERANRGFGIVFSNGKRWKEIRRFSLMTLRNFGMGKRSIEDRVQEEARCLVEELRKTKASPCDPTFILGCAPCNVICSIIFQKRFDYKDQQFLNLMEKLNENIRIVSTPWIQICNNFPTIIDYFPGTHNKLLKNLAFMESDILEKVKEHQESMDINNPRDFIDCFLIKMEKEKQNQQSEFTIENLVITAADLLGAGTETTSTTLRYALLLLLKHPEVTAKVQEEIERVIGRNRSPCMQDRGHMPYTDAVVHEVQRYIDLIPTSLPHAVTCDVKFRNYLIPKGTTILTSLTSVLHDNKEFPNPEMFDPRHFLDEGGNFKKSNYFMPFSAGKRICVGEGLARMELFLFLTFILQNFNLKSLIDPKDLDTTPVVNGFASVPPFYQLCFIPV
Paired box protein Pax-8, sequence (Q06710 whole entry): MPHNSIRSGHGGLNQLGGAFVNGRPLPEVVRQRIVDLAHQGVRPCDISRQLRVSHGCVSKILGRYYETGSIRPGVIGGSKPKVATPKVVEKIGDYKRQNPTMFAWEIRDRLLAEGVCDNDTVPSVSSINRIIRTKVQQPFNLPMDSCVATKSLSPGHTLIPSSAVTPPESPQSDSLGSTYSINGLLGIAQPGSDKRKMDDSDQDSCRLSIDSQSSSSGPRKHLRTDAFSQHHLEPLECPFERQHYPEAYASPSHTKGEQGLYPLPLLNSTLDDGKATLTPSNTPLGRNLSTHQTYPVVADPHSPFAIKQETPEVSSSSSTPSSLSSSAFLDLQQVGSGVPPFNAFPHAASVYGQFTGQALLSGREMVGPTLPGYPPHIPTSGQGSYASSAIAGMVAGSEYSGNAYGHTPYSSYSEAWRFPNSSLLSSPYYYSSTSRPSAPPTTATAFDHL
FAD-linked sulfhydryl oxidase ALR, sequence (P55789 whole entry): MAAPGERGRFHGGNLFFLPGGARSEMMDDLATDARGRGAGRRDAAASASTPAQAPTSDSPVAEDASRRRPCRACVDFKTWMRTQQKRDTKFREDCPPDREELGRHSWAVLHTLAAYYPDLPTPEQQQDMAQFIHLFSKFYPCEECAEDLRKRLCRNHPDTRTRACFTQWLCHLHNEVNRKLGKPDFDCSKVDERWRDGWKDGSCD

## CCCC[N+]12CCC(CC1)C(C(=O)c1cccs1)C2 (stereo unspecified)
[1]
  AC50: 39.8 µM (inconclusive)
[2]
  AC50: 10 µM (inconclusive)
[3]
  IC50: 2.42 µM (active)
[4]
  IC50: 2.56 µM (active)

## C=CCN(CC=C)C(=S)Nc1ccc2nsnc2c1
[5]
  AC50: 15 µM (active)
[6]
  IC50: > 128 µM (inactive)
[7]
  IC50: > 66 µM (inactive)
[8]
  IC50: > 66 µM (inactive)

## CCOc1cc(/C=C2/C(=O)N(c3ccccc3)N=C2C)ccc1OC(=O)c1ccco1
[9]
  AC50: 25.1 µM (inconclusive)
[10]
  AC50: 2.68 µM (active)
[6]
  IC50: 119 µM (inactive)
[11]
  EC50: 1.64 µM (active)

## CC1=CC(=Nc2c(C)n(C)n(-c3ccccc3)c2=O)C=C(C)C1=O
[12]
  IC50: 13.2 µM (active)

## COCC(C)N1C(=O)Cc2c1nc(N)c1c(N)nc(N3CCN(c4ccccc4F)CC3)c(C#N)c21 (stereo unspecified)
[12]
  IC50: > 50 µM (not active)

## CN1CCC(N(C)S(=O)(=O)c2ccc(NC(=O)COc3ccc(F)cc3)cc2)CC1
[13]
  EC50: > 60 µM (not active)
[14]
  EC50: 0.835 µM (active)
[3]
  IC50: 3.71 µM (active)
[4]
  IC50: 3.53 µM (active)

## C[C@@H]1CCCCO[C@H](CN(C)Cc2ccc(C(F)(F)F)cc2)[C@@H](C)CN([C@@H](C)CO)C(=O)c2cc(NS(=O)(=O)c3ccc(Cl)cc3)ccc2O1
[15]
  AC50: 40.7 µM (active)
[16]
  AC50: 6.82 µM (active)

## CC(=O)Nc1cc(-c2ccccc2)ccc1O
[17]
  AC50: 1.1 µM (active)
[3]
  IC50: 7.17 µM (active)
[4]
  IC50: 16.5 µM (active)

## O=[N+]([O-])c1cc2c(cc1/C=N/c1ccccc1)OCO2
[9]
  AC50: 20 µM (inconclusive)
[18]
  AC50: 25.1 µM (inconclusive)
[2]
  AC50: 10 µM (inconclusive)
[12]
  IC50: > 50 µM (not active)

## CC(C)C(NC(=O)COc1ccc2ccccc2c1)C(=O)N/N=C/C=C/c1ccccc1 (stereo unspecified)
[3]
  IC50: 3.22 µM (active)
[4]
  IC50: 4.97 µM (active)

## CCOCc1cnc(C)nc1NCC(=O)c1c(C)[nH]c2cc(C)ccc12
[3]
  IC50: 4.29 µM (active)
[4]
  IC50: 4.04 µM (active)
